Results: patent US8431561B2 (priority 2004, dated 2013)
Entries after “also recorded” stand apart in the source; their conditions may differ. Read-outs that look alike come from different tables or passages of the source.

What was measured:
[1] = biological target: apoenzyme of methylmalonyl-CoA mutase (Propionibacterium freudenreichii subsp. shermanii, UniProt P11653); conditions: cited from earlier work
[2] = human, in vivo, iv; cited from earlier work
[3] = tested on: Chinese hamster cells (cytochrome c oxidase); format: cell-based
methylmalonyl-CoA mutase [4] = format: cell-based, baby hamster
[5] = tested on: Malpighian tubules of D. melanogaster; format: cell-based
D. melanogaster [6] = conditions: in vivo
[7] = tested on: Malpighian tubules of D. melanogaster; format: cell-based; remark: listed apart in the source
[8] = tested on: VASP phosphorylation in rat C6 glioma cells; format: cell-based
methionine synthase [9] = format: cell-based, baby hamster
D. melanogaster [10] = conditions: in vivo; remark: listed apart in the source
D. melanogaster [11] = conditions: in vivo; remark: listed apart in the source
[12] = pig, in vivo; cited from earlier work
methionine synthase [13] = format: biochemical, baby hamster
methylmalonyl-CoA mutase [14] = format: biochemical, baby hamster
[15] = tested on: NO (nitrite and nitrate) in Malpighian tubule medium; format: cell-based, D. melanogaster
rats = conditions: rat, in vivo, sc; cited from earlier work
transcobalamin II = conditions: cited from earlier work
[16] = tested on: BHK, CS-54, and C6 cells, human foreskin fibroblasts and HUVECs; conditions: cited from earlier work
[17] = tested on: VASP phosphorylation in CS-54 vascular smooth muscle cells; format: cell-based, rat
mouse leukemic cells = conditions: cited from earlier work
Chinese hamster cells = format: cell-based
[18] = biological target: methionine synthase apoenzyme (Homo sapiens, UniProt Q99707); conditions: cited from earlier work
methionine synthase apoenzyme, sequence (Q99707 whole entry): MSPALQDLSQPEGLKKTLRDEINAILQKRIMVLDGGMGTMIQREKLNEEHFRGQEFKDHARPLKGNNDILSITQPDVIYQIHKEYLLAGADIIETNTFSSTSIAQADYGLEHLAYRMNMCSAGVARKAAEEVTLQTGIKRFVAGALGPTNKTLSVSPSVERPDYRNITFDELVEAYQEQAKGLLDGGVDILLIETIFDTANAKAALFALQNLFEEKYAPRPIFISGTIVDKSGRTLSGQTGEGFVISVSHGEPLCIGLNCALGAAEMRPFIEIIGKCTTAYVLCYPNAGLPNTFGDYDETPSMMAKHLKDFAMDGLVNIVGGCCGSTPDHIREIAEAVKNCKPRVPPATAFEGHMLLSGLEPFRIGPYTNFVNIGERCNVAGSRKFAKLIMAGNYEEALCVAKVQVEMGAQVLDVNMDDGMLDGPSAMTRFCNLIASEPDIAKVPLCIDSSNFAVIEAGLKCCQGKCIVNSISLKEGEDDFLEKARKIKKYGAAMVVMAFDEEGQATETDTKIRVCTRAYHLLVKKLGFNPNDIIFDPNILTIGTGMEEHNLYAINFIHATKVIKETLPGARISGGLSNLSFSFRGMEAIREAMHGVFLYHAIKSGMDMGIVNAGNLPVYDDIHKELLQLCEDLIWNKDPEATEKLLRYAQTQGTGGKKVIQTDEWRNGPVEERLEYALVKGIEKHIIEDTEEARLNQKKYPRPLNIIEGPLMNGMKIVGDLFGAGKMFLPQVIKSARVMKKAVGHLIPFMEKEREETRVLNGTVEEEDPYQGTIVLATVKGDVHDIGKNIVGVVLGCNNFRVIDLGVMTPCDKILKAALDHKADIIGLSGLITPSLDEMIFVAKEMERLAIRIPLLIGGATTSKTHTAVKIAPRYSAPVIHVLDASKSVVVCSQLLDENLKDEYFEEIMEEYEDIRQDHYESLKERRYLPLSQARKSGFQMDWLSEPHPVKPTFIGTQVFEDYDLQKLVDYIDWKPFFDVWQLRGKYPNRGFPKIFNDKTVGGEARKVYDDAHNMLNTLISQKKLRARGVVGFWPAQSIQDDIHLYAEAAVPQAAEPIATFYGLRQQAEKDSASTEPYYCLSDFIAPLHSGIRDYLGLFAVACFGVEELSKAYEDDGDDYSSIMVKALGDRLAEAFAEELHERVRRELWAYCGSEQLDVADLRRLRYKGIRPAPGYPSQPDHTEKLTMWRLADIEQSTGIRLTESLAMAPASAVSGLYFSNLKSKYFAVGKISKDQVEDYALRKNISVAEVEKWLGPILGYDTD

[19] = tested on: BHK, CS-54, and C6 cells, human foreskin fibroblasts and HUVECs
[20] = tested on: Malpighian tubules of D. melanogaster; conditions: in vivo
haptocorrin = haptocorrin (Homo sapiens, UniProt P20061); conditions: cited from earlier work
haptocorrin, sequence (P20061 24-433): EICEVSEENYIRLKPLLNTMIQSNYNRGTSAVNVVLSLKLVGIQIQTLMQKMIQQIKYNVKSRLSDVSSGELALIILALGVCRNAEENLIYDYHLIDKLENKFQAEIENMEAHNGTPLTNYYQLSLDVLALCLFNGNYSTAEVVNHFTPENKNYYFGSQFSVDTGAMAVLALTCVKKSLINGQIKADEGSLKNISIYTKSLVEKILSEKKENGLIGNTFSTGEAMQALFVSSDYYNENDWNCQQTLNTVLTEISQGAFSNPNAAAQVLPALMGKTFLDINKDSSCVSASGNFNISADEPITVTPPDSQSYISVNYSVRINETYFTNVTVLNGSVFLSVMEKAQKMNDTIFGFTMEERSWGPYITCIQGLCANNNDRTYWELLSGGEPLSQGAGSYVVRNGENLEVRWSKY

[21] = tested on: NO (nitrite plus nitrate), CS-54 cells; format: cell-based, rat
[22] = tested on: NO (nitrite plus nitrate), C6 cells; format: cell-based, rat
[23] = rabbit, in vivo, cited from earlier work
baby chicks = conditions: in vivo, cited from earlier work
[24] = tested on: human monocytes and lymphocytes; conditions: cited from earlier work

apoenzyme of methylmalonyl-CoA mutase, sequence (P11652 2-638): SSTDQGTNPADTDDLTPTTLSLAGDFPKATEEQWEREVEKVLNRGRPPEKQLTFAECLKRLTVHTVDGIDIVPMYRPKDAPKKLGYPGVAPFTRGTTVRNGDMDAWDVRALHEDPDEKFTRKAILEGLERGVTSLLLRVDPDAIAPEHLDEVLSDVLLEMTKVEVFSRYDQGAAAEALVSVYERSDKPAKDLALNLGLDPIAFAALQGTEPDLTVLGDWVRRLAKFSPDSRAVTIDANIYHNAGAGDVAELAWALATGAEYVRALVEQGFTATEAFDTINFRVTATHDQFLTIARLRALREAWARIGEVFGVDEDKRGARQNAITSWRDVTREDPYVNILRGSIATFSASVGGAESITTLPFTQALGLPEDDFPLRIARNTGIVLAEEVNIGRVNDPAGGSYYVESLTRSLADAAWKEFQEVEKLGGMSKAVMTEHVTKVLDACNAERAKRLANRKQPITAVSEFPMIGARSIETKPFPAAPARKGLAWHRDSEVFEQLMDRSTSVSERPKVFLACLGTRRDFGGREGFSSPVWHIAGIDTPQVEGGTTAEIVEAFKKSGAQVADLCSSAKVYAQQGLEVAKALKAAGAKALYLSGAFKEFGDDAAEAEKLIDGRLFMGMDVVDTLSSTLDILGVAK
apoenzyme of methylmalonyl-CoA mutase, sequence (P11653 2-728): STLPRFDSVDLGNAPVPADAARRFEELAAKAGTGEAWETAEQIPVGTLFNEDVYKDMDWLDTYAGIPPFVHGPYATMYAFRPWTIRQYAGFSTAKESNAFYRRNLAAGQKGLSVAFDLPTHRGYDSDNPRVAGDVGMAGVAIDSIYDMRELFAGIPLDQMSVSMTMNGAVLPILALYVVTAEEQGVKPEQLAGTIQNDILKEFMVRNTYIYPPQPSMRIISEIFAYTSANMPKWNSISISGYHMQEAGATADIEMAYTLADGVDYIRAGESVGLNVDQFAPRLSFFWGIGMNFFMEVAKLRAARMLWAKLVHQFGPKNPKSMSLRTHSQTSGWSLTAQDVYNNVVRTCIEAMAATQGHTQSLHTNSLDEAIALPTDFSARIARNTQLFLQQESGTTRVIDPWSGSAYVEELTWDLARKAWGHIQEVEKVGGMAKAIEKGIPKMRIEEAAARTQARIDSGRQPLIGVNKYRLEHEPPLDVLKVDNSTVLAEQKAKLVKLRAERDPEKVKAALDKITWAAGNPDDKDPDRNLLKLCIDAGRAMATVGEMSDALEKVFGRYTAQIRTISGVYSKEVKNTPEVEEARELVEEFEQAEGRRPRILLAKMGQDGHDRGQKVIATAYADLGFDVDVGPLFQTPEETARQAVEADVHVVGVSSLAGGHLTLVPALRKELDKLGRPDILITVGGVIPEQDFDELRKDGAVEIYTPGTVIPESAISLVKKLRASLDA

## 5′-deoxyadenosyl-cobinamide
[1]
  restoring function to the apoenzyme of methylmalonyl-CoA mutase: inactive

## C/C1=C2/[N-][C@H]([C@H](CC(N)=O)[C@@]2(C)CCC(=O)NC[C@H](C)OP(=O)([O-])O[C@H]2[C@@H](O)[C@@H](n3cnc4cc(C)c(C)cc43)O[C@@H]2CO)[C@]2(C)N=C(/C(C)=C3N=C(/C=C4N=C1[C@@H](CCC(N)=O)C\4(C)C)[C@@H](CCC(N)=O)[C@]\3(C)CC(N)=O)[C@@H](CCC(N)=O)[C@]2(C)CC(N)=O.[Co+2] (stereo in doubt) [cobalamin, reference compound]
[2]
  mean peak serum concentration: about 650 μM
[3]
  effect on oxygen consumption: Neither cobinamide nor cobalamin alone had any effect on oxygen consumption
  recovery of respiration, of control non-KCN-treated cells: 42%
methylmalonyl-CoA mutase [4]
  prevention of cobinamide effect on [14C]-propionic acid incorporation: completely prevented
[5]
  effect on NO scavenging by cobinamide, tubular fluid secretion: no effect on NO scavenging by cobinamide
D. melanogaster [6]
  flies salvaged: 62%
  flies survived: 44%
  mortality rate: 55%
[7]
  basal secretion rates: no effect on basal secretion rates
  resistance to KCN inhibition of tubular secretion: significant resistance to the inhibitory effect of KCN; also recorded: intermediate degree of resistance to KCN
[8]
  effect on NO scavenging by cobinamide, VASP phosphorylation: no effect on NO scavenging by cobinamide
Methionine synthase [9]
  prevention of cobinamide effect on [14C]-formate incorporation: completely prevented
D. melanogaster [10]
  survival rate: 38%
D. melanogaster [11]
  toxicity to flies: No toxicity

## C/C1=C2/[N-][C@H]([C@H](CC(N)=O)[C@@]2(C)CCC(=O)NC[C@@H](C)O)[C@]2(C)N=C(/C(C)=C3N=C(/C=C4N=C1[C@@H](CCC(N)=O)C\4(C)C)[C@@H](CCC(N)=O)[C@]\3(C)CC(N)=O)[C@@H](CCC(N)=O)[C@]2(C)CC(N)=O.[Co+3] [cobinamide]
[12]
  absorption across the ileum: can be absorbed across the ileum independently of intrinsic factor
[3]
  effect on oxygen consumption: Neither cobinamide nor cobalamin alone had any effect on oxygen consumption
  recovery of respiration, of control non-KCN-treated cells: about 75%
Methionine synthase [13]
  methionine synthase activity in BHK cell extracts: no effect
Serum albumin
  binding to serum albumin: binds tightly to serum albumin
methylmalonyl-CoA mutase [14]
  methylmalonyl-CoA mutase activity in BHK cell extracts: no effect
methylmalonyl-CoA mutase [4]
  decrease of [14C]-propionic acid incorporation into protein: about 50%
[15]
  reduction of combined nitrite and nitrate: about 50%
[5]
  rate of tubular secretion: rapidly reduced tubular secretion, returning rates near to the basal state
D. melanogaster [6]
  HCN exposure time without any significant increase in mortality: up to 15 min
  flies salvaged: 94%
  flies survived: 65%
  flies surviving / recovered by 1 h: approximately 90%
  mortality rate: 18%
  outcome of prolonged HCN exposure: death of all flies
  prevention of death: as effective in preventing death under these conditions as it was when administered prior to cyanide exposure
rats
  inhibition of methionine synthase or methylmalonyl-CoA mutase: nor did cobinamide inhibit the two mammalian cobalamin-dependent enzymes
  toxic effects: no apparent toxic effects
[7]
  basal secretion rates: no effect on basal secretion rates
  resistance to KCN inhibition of tubular secretion: significant resistance to the inhibitory effect of KCN; also recorded: almost complete reversal of the toxic effects of KCN
  tubular secretion rates: tubular secretion rates increased significantly
Transcobalamin II
  binding to transcobalamin II: binds poorly
[8]
  8-pCPT-cGMP-induced VASP phosphorylation: no effect
  PAPA-NONOate-induced VASP phosphorylation: prevented the increase in VASP phosphorylation; also recorded: prevented increases in VASP phosphorylation
Methionine synthase [9]
  decrease of [14C]-formate incorporation into purine nucleotides: about 50%
  inhibition of in vivo methionine synthase activity: minimal inhibition
[16]
  not toxic to cultured mammalian cells up to: at least 50 μM
D. melanogaster [10]
  survival rate: 65%
[17]
  A23187-induced VASP phosphorylation: significantly attenuated this effect
Mouse leukemic cells
  growth inhibitory effects: no growth inhibitory effects
Chinese hamster cells
  growth rate of KCN-treated cells: restored their growth rate to normal
[18]
  restoration of methionine synthase apoenzyme activity: can restore the methionine synthase apoenzyme to full activity
[19]
  concentration at which toxicity began to be observed: about 50 μM
[20]
  reduction of LPS-stimulated tubular secretion rates compared to control flies: about 50%
haptocorrin
  binding to haptocorrin: binds tightly
[21]
  nitrite plus nitrate concentrations in medium: significant decrease in the nitrite plus nitrate concentrations
[22]
  nitrite plus nitrate concentrations in medium: significant decrease in the nitrite plus nitrate concentrations
[23]; iv
  release from the liver, t?: ~150 h
[23]
  liver retention: retained more by the liver than cobalamin
D. melanogaster [11]
  detrimental effect on the flies: no apparent detrimental effect
  toxicity to flies: No toxicity
Baby chicks; po
  growth of baby chicks: did inhibit chick growth
Baby chicks
  growth of baby chicks: no effect on the growth of baby chicks
[24]
  growth inhibitory effects: no growth inhibitory effects
